The target of test [1] is MMP-13 (Homo sapiens, UniProt P45452). Briefly: MMP-13 inhibition (thiopeptide or fluorescent peptide substrate). Format: biochemical. The conditions noted are these: read-out: MMP-13 % Inhib. The procedure:
(§1) Test Procedures for Measuring MMP-1 and MMP-13 Inhibition
(§2) These standard pharmacological test procedures are based on the cleavage of a thiopeptide substrates such as Ac-Pro-Leu-Gly(2-mercapto-4-methyl-pentanoyl)-Leu-Gly-OEt by the matrix metalloproteinases MMP-1 or MMP-13 (collagenases) which results in the release of a substrate product that reacts colorimetrically with DTNB (5,5′-dithiobis(2-nitro-benzoic acid)). The enzyme activity is measured by the rate of the color increase. The thiopeptide substrate is made up fresh as a 20 mM stock in 100% DMSO and the DTNB is dissolved in 100% DMSO as a 100 mM stock and stored in the dark at room temperature. Both the substrate and DTNB are diluted together to 1 mM with substrate buffer (50 mM HEPES pH 7.5, 5 mM CaCl2) before use. The stock of enzyme is diluted with buffer (50 mM HEPES, pH 7.5, 5 mM CaCl2, 0.02% Brij) to the desired final concentration. The buffer, enzyme, vehicle or inhibitor, and DTNB/substrate are added in this order to a 96 well plate (total reaction volume of 200 μl) and the increase in color is monitored spectrophotometrically for 5 minutes at 405 nm on a plate reader and the increase in color over time is plotted as a linear line.
(§3) Alternatively, a fluorescent peptide substrate is used. In this test procedure, the peptide substrate contains a fluorescent group and a quenching group. Upon cleavage of the substrate by an MMP, the fluorescence that is generated is quantitated on the fluorescence plate reader. The assay is run in HCBC assay buffer (50 mM HEPES, pH 7.0, 5 mM Ca^+2, 0.02% Brij, 0.5% Cysteine), with human recombinant MMP-1 or MMP-13. The substrate is dissolved in methanol and stored frozen in 1 mM aliquots. For the assay, substrate and enzymes are diluted in HCBC buffer to the desired concentrations. Compounds are added to the 96 well plate containing enzyme and the reaction is started by the addition of substrate. The reaction is read (excitation 340 nm, emission 444 nm) for 10 min. and the increase in fluorescence over time is plotted as a linear line.
(§4) For either the thiopeptide or fluorescent peptide test procedures, the slope of the line is calculated and represents the reaction rate. The linearity of the reaction rate is confirmed (r^2>0.85). The mean (x±sem) of the control rate is calculated and compared for statistical significance (p<0.05) with drug-treated rates using Dunnett's multiple comparison test. Dose-response relationships can be generated using multiple doses of drug and IC50 values with 95% Cl are estimated using linear regression.

Test [2] addresses T1, MMP-1 (Homo sapiens, UniProt P03956).
T1 sequence (P03956 100-469): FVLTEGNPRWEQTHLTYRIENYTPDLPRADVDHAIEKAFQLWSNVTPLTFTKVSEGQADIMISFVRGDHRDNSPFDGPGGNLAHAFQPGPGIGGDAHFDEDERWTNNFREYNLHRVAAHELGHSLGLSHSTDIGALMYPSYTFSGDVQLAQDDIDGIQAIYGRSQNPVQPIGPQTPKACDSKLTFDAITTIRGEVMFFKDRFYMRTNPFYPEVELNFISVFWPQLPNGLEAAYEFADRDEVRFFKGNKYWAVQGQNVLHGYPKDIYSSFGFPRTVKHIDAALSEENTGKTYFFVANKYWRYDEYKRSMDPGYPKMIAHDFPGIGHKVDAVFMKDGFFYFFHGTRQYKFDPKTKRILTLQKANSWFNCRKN
Briefly: MMP-1 inhibition (thiopeptide or fluorescent peptide substrate). Format: biochemical. As to conditions: read-out: MMP-1 % Inhib. On the procedure:
as §1, §2, §3, §4

Test [3] has as its target TNF-α converting enzyme (TACE) (Homo sapiens, UniProt P78536). Briefly: TACE inhibition (fluorescent peptidyl substrate). Format: biochemical. The procedure: Test Procedure for Measuring TACE Inhibition
Using 96-well black microtiter plates, each well receives a solution composed of 10 μL TACE (final concentration 1 μg/mL), 70 μL Tris buffer, pH 7.4 containing 10% glycerol (final concentration 10 mM), and 10 μL of test compound solution in DMSO (final concentration 1 μM, DMSO concentration <1%) and incubated for 10 minutes at room temperature. The reaction is initiated by addition of a fluorescent peptidyl substrate (final concentration 100 μM) to each well and then shaking on a shaker for 5 sec.
The reaction is read (excitation 340 nm, emission 420 nm) for 10 min. and the increase in fluorescence over time is plotted as a linear line. The slope of the line is calculated and represents the reaction rate.
The linearity of the reaction rate is confirmed (r^2>0.85). The mean (x±sem) of the control rate is calculated and compared for statistical significance (p<0.05) with drug-treated rates using Dunnett's multiple comparison test. Dose-response relationships can be generate using multiple doses of drug and IC50 values with 95% Cl are estimated using linear regression.

For test [4], the system named is THP-1 cells. Briefly: THP-1 soluble protein assay (LPS-stimulated THP-1 cells, ELISA). The class given is cell-based. The conditions noted are these: Homo sapiens. The text has this: Human Monocytic THP-1 Cell Differentiation Assay for Soluble Proteins (THP-1 Soluble Protein Assay)
Mitogenic stimulation of THP-1 cells cause differentiation into macrophage like cells with concomitant secretion of tumor necrosis factor (TNF-a) and TNF receptor (TNF-R p75/80 and TNF-R p55/60) and Interleukin-8 (IL-8), among other proteins. In addition, non-stimulated THP-1 cells shed both the p75/80 and the p55/60 receptors over time. The release of membrane bound TNF-α and possibly TNF-R p75/80 and TNF-R p55/60, but not IL-8, is mediated by an enzyme called TNF-a converting enzyme or TACE.
THP-1 cells (from ATCC) are a human monocytic cell line which are obtained from the peripheral blood of a person with acute monocytic leukemia. They can be grown in culture and differentiated into macrophage like cells by stimulation with mitogens.
For the assay, THP-1 cells are seeded from an ATCC stock which is previously grown and frozen back at 5×10^6/ml/vial. One vial is seeded into a T25-flask with 16 mls of RPMI-1640 with glutamax (Gibco) media containing 10% fetal bovine serum, 100 units/ml penicillin, 100 μg/ml streptomycin, and 5×10^−5 M 2-mercapto-ethanol (THP-1 media). Each vial of cells are cultured for about two weeks prior to being used for an assay and then are used for only 4 to 6 weeks to screen compounds. Cells are subcultured on Mondays and Thursdays to a concentration of 1×10^5/ml.
To perform an assay, the THP-1 cells are co-incubated in a 24 well plate with […] of a 24 mg/ml stock of Lipopolysacharide (LPS) (Calbiochem Lot# B13189) at 37° C. in 5% CO2 at a concentration of 1.091×10^6 cells/ml (1.1 ml/well) for a total of 24 hours. At the same time, […] of drug, vehicle or THP-1 media is plated in appropriate wells to give a final volume of 1.2 ml/well. Standard and test compounds are dissolved in DMSO at a concentration of 36 mM and diluted from here to the appropriate concentrations in THP-1 media and added to the wells at the beginning of the incubation period to give final concentrations of […], 300 nM, and 100 nM. Cell exposure to DMSO is limited to 0.1% final concentration. Positive control wells are included in the experiment which had mitogen added but no drug. Vehicle control wells are included as well, which are identical to the positive control wells, except that DMSO is added to give a final concentration of 0.083%. Negative control wells are included in the experiment which had vehicle but no mitogen or drug added to the cells. Compounds can be evaluated for their effect on basal (non-stimulated) shedding of the receptors by replacing the LPS with […] of THP-1 media. Plates are placed into an incubator set at 5% CO2 and at 37° C. […]
In addition, at the 24 hours timepoint, and the cells for each treatment group are collected by resuspension in 500 μl/well of THP-1 media and transferred into a FACS tube. […] The samples are run on a Becton Dickinson FaxCaliber FLOW cytometry machine and the amount of dye taken up by each cell is measured in the high red wavelength (FL3). […] The percent of live cells is calculated by the number of cells not stained with PI, divided by the total number of cells in the sample. The viability values calculated for the drug treated groups are compared to the viability value calculated for the vehicle treated mitogen stimulated group (“vehicle positive control”) to determine the “percent change from control”. […]
On the technique in general: ELISA stands for enzyme-linked immunosorbent assay.

TNF-α converting enzyme (TACE), sequence (P78536 215-824, species assumed): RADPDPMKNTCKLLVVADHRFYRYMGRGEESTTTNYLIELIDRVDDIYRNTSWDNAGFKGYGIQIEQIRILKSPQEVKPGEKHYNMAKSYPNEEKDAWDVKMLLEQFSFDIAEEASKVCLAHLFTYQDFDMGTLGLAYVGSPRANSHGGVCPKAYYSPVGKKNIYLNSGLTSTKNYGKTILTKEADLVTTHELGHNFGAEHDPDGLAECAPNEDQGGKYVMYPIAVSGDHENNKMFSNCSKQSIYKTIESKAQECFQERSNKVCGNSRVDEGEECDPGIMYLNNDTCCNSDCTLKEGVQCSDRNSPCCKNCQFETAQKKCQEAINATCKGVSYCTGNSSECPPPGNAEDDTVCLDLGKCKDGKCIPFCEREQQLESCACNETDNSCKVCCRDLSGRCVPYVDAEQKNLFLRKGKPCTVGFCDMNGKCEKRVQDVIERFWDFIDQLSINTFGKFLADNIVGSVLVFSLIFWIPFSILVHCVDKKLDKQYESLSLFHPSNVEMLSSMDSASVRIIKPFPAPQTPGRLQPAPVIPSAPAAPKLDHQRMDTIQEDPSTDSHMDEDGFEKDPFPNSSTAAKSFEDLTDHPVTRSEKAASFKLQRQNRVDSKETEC

One may read the IC50 as the concentration that inhibits the measured activity by half. Lower therefore signals greater potency in that assay. Regarding `CC#CCOc1ccc(S(=O)(=O)Oc2ccc(C)cc2C(=O)NO)cc1` [Example 3, 2-[(Hydroxyamino)carbonyl]-4-methylphenyl 4-(2-butynyloxy)benzenesulfonate], the inhibition at 10 µM in test [1] was determined as 27%; in test [2], 11%. This molecule returned an IC50 in test [3] of 31 nM. The inhibition at 1 µM in test [4] came to 0%.

With `CC#CCOc1ccc(S(=O)(=O)Oc2c(C)cccc2C(=O)NO)cc1` [Example 1, 2-[(Hydroxyamino)carbonyl]-6-methylphenyl 4-(2-butynyloxy)benzenesulfonate], the results for the inhibition at 10 µM in test [1] and in test [2] were 38% and 11%, respectively. This molecule also yielded an IC50 in test [3] of 19 nM. In test [4], this molecule yielded an inhibition at 1 µM of 11%.

Turning to `CC#CCOc1ccc(S(=O)(=O)Oc2c(OC)cccc2C(=O)NO)cc1` [Example 2, 2-[(Hydroxyamino)carbonyl]-6-methoxyphenyl 4-(2-butynyloxy)benzenesulfonate], the inhibition at 10 µM came to 56% in test [1] and 7% in test [2]. Moreover, in test [3], the IC50 was found to be 13 nM. Further, the inhibition at 1 µM in test [4] was found to be 1%.

Take `CC#CCOc1ccc(S(=O)(=O)Oc2cc3ccccc3cc2C(=O)NO)cc1` [Example 5, 3-[(Hydroxyamino)carbonyl]-2-naphthyl 4-(2-butynyloxy)benzenesulfonate]: the inhibition at 10 µM in test [1] stood at 64%; in test [2], 16%. The molecule also returned an IC50 in test [3] of 67 nM. Further, the inhibition at 1 µM in test [4] turned out to be 0%.

For the molecule `CC#CCOc1ccc(S(=O)(=O)Oc2c(C(=O)NO)cc(C(C)C)cc2C(C)C)cc1` [Example 4, 2-[(Hydroxyamino)carbonyl]-4,6-diisopropylphenyl 4-(2-butynyloxy)benzenesulfonate], the values for the inhibition at 10 µM in test [1] and in test [2] were 45% and 3%, respectively. The same molecule had an IC50 in test [3] of 361 nM. In test [4], the inhibition at 1 µM was determined as 6%.

Values taken from patent US7485667B2, “Acetylenic aryl sulfonate hydroxamic acid tace and matrix metalloproteinase inhibitors” (Wyeth Holdings Corporation, priority 2002, dated 2009).
